Assay results from US6399629B1, “Efflux pump inhibitors” (priority 1998, dated 2002).

Test system: Pseudomonas aeruginosa PAM1001
Test: checkerboard assay (broth microdilution): levofloxacin MIC in presence of efflux pump inhibitor
Type: cell-based
Method in brief: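 Reduction of levofloxacin MIC by an efflux pump inhibitor measured against Pseudomonas aeruginosa PAM1001. Each microdilution well held a unique combination of levofloxacin and inhibitor (max 40 μg/mL) in MHB, inoculum 5×10^5 CFU/mL. Readout after 20 h, 35° C: OD650 plus visual inspection.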

Row | Compound | Levofloxacin MIC Against P. aerugiuosa PAM1001 in Presence of Efflux Pump Inhibitor (EPI), Minimum Inhibitory Concentration (EPI Conc. 0 μg/mL) [µg/mL] | Levofloxacin MIC Against P. aerugiuosa PAM1001 in Presence of Efflux Pump Inhibitor (EPI), Minimum Inhibitory Concentration (EPI Conc. 0.625 μg/mL) [µg/mL] | Levofloxacin MIC Against P. aerugiuosa PAM1001 in Presence of Efflux Pump Inhibitor (EPI), Minimum Inhibitory Concentration (EPI Conc. 1.25 μg/mL) [µg/mL] | Levofloxacin MIC Against P. aerugiuosa PAM1001 in Presence of Efflux Pump Inhibitor (EPI), Minimum Inhibitory Concentration (EPI Conc. 2.5 μg/mL) [µg/mL] | Levofloxacin MIC Against P. aerugiuosa PAM1001 in Presence of Efflux Pump Inhibitor (EPI), Minimum Inhibitory Concentration (EPI Conc. 5 μg/ mL) [µg/mL] | Levofloxacin MIC Against P. aerugiuosa PAM1001 in Presence of Efflux Pump Inhibitor (EPI), Minimum Inhibitory Concentration (EPI Conc. 10 μg/mL) [µg/mL] | Levofloxacin MIC Against P. aerugiuosa PAM1001 in Presence of Efflux Pump Inhibitor (EPI), Minimum Inhibitory Concentration (EPI Conc. 20 μg/mL) [µg/mL] | Levofloxacin MIC Against P. aerugiuosa PAM1001 in Presence of Efflux Pump Inhibitor (EPI), Minimum Inhibitory Concentration (EPI Conc. 40 μg/mL) [µg/mL]
1 | COc1cc(C)c2ncc(NC(=O)[C@@H](CCc3ccccc3)NC(=O)[C@@H]3C[C@@H](NC(=O)CN)CN3)cc2c1 [Compound M22] | 4 | 4 | 4 | 4 | 4 | 0.50 | 0.03 | 0.015
2 | NC[C@H]1CN[C@@H](C(=O)NCc2nc3ccc(Cc4ccccc4)cc3[nH]2)C1 [Compound M87, (2R,4S)-4-(Aminomethyl)-N-[(5-benzyl-2-benzimidazoiyl)methyl]-2-pyrrolidinecarboxamide] | 4 | 4 | 4 | 1 | 0.125 | 0.06 | 0.03 | 
3 | (2S,4R)-4-(Aminompropionamido)-N-[(1R)-3-phenyl-1-(3-quinolylcarbamolyl)propyl]-2-pyrrolidinecarboxamide [Compound M5] | 4 | 4 | 4 | 4 | 2 | 2 | 0.50 | 0.008
4 | Cc1ccc2ncc(C(=O)N[C@@H](CCc3ccccc3)CNC(=O)[C@H]3C[C@H](CN)CN3)cc2c1 [Compound M62, (2R,4R)-4-(Aminomethyl)-N-[(2S)-2-(6-methyl-3-quinolylcarboxamido)-4-phenylbutyl]-2-pyrrolidinecaroxamide] | 4 | 4 | 4 | 4 | 4 | 2 | 0.5 | 0.015
5 | C[C@@H](N)C(=O)N[C@@H]1CN[C@@H](C(=O)N(CCC(C)(C)C)CC(=O)Nc2cnc3ccccc3c2)C1 [Compound M47] | 4 | 4 | 4 | 4 | 4 | 4 | 2 | 0.03
6 | NC[C@@H]1CN[C@@H](C(=O)N[C@H](Cc2ccc(F)cc2)C(=O)Nc2cnc3ccccc3c2)C1 [Compound M31, (2R,4R)-4-(Aminomethyl)-N-[(1R)-2-(4-fluoropheyl)-1-(3-quinolylcarbamoyl)ethyl]-2-pyrrolidinecarboxamide] | 4 | 4 | 4 | 4 | 1 | 0.25 | 0.03 | 0.03
